Assay results published in patent publication US11524956B2, “Alkyne substituted quinazoline compound and methods of use” (Newgen Therapeutics, Inc., priority 2011, dated 2022).
Where two headings read alike, the source gives them in different places.

Assays:
[1] = tested on: BT474 cells; test: Cell proliferation inhibition assay for BT474 (CCK-8); assay type: cell-based; settings: Homo sapiens, BT-474; 72h
Procedure: Human breast cancer BT474 cells was cultured in low glucose DMEM (Life Technologies 12320-032) containing 10% fetal bovine serum (FBS) at 37° C. in a humidified 10% CO2, 90% air incubator. Cells were harvested using trypsin EDTA, counted using a haemocytometer, and plated 10000 cell/well in a 96-well clear tissue culture plate. The cells were incubated for 24 h at 37° C. to allow adherence. A serials of concentrations of each compound (ranging from 30 um to 0.16 nM, 5-fold dilution) in 96-well plate, and incubated for 72h. Each concentration was tested in triplicate wells. During the cell proliferation assay, BT474 cells were cultured in low-glucose DMEM containing 5% FBS, 50 ug/ml gentamicin, and 0.3% v/v DMSO. The culture medium was removed via aspiration, and the cell viability was detected by using CCK-8 cell proliferation kit. The IC50 value measured for each compound in Examples 1 to 7 is <100 nM.

[2] = Rat pharmacokinetics studies (plasma); assay type: in vivo, Sprague Dawley rats
Procedure: Sample preparation: The test article each was dissolved in 10% DMSO and 90% of (40% HP-β-CD in deionized water) to yield concentration at 2 mg/mL for intravenous and oral administration.
Method development and plasma samples analysis were performed by Analytical Sciences Division of the Testing Facility by means of LC-MS/MS. The analytical results were confirmed using quality control samples for intra-assay variation (within day variation). The accuracy of >66% of the quality control samples was between 80-120% of the known value(s).
Each group consisted of 3 male Sprague Dawley rats (7-8 week old, 200-300 g body weight). The test articles were administered by a single bolus intravenous injection via the lateral tail vein or via oral gavage.
Blood samples (approximately 300 μl) were collected via retro-orbital puncture after anaesthesia using mixed gas (CO2:O2=7:3) into tubes containing EDTA-K3 anticoagulant at appropriate time points. 10 time points (Groups 1-2): Pre-dose and post-dose at 5 min, 15 min, 30 min, 1 h, 2 h, 4 h, 6 h, 8 h and 24 h.
Analysis: The PK blood samples were centrifuged at approximately 8000 rpm for (3 minutes at 2-8° C. and the resulting plasma were separated and stored frozen at approximately −80° C. (following separation, the plasma may be initially placed on ice prior to being stored in the −80° C. freezer). All the plasma samples were labeled with detailed information such as study number, animal number, matrix, time points of collection and date of collection.
Standard set of parameters including Area Under the Curve (AUC(0-t) and AUC(0-∞)), elimination half-live (T1/2), maximum plasma concentration (Cmax), time to reach maximum plasma concentration (Tmax), clearance (CL), and volume of distribution (Vz) will be calculated using noncompartmental analysis modules in FDA certified pharmacokinetic program WinNonlin Professional v5.2 (Pharsight, USA) by the Study Director. Furthermore, the Bioavailability will be estimated using the following formula:
• AUC(0-t) Area under the curve from the time of dosing to the last measurable concentration • AUC(0-∞) Area under the curve from the time of dosing extrapolated to infinity, based on the last observed concentration • CL Total body clearance, CL=Dose/AUC • Cmax Maximum observed concentration, occurring at Tmax • F Bioavailability • MRT(0-∞) Mean residence time from the time of dosing to infinity • Tmax Time of maximum observed concentration • T1/2 Terminal half-life=In(2)/λz • Vz Volume of distribution based on the terminal phase

[3] = tested on: NCI-H1975 cells; test: Anti-proliferation assay of NCI-H1975 cells (CCK-8); assay type: cell-based; settings: Homo sapiens, NCI-H1975, 72 h, 3 days
Procedure: The anti-proliferative assays were performed in triplicates. 3000 cell/well of N1975 cells were seeded in 96-well plate (medium: RPMI 1640, 5% FBS. 2 mM L-Glutamine). After 24 h, removal the medium in the plate was followed by the addition of compound of serial dilution in medium to the wells. After 3 days, the cells were treated with CCK-8 kit and incubated for additional 4 hours at 37° C. The plate was read at 450 nm. The log of the fractional growth inhibition was plotted against the log of the drug concentration, and the IC50 values were interpolated from the resulting linear regression curve fit. The IC50 value measured for Compound NT113 is <1000 nM.

[4] = tested on: NCI-N87 cells; test: Anti-proliferation assay of NCI-N87 cells (CCK-8); assay type: cell-based; settings: Homo sapiens, 72h
Procedure: The anti-proliferative assays were performed in triplicates. 3000 cell/well of N87 cells were seeded in 96-well plate, and the cells were incubated for 24h at 37° C. to allow adherence. For the cell proliferation assay, N87 cells were cultured in full cell culture medium containing 0.3% v/v DMSO. A serials concentration of the tested compound (concentration range: 30 uM to 0.16 nM, 5-fold dilution) were added to the 96-welt plate. The incubation was continued for 72h. The culture medium was then removed, and the cell viability was measured by using CCK-8 cell proliferation kit as described in manual provided by the manufacturer. The log of the fractional growth inhibition was plotted against the log of the drug concentration, and the IC50 values were interpolated from the resulting linear regression curve fit. The IC50 value measured for Compound NT113 is <100 nM.

[5] = male, Sprague Dawley, rat plasma, IV 1 mg/Kg
[6] = male, Sprague Dawley, rat plasma, PO 5 mg/Kg

CN(C)C/C=C/C(=O)Nc1cc2c(Nc3ccc(F)c(Cl)c3)ncnc2cc1C#C[C@@H]1[C@H]2COC[C@@H]12 [Example 4, (E)-N-(4-(3-chloro-4-fluorophenylamino)-7-(2-((1R,5S,6s)-3-oxa-bicyclo[3.1.0]hexan-6-yl)ethynyl)quinazolin-6-yl)-4-(dimethylamino)but-2-enamide]
IC50 [1]: < 100 nM | bioavailability ([2]; male, Sprague Dawley, plasma, rat, PO 5 mg/Kg, using AUC(0-t) instead of AUC(0-∞), read-out: calculated oral bioavailability): 80.5% | AUC(0-inf) [2, 5]: 158 ng·h/mL | AUC(0-t) [2, 5]: 135 ng·h/mL | Cmax [2, 5]: 44.4 ng/mL | clearance [2, 5]: 105 mL/min/kg | half-life [2, 5]: 7.48 h | Vd ([2]; male, Sprague Dawley, rat plasma, IV 1 mg/Kg, read-out: Vz): 20.5 L/kg | AUC(0-inf) [2, 6]: 555 ng·h/mL | AUC(0-t) [2, 6]: 542 ng·h/mL | Cmax [2, 6]: 39.3 ng/mL | half-life [2, 6]: 14.9 h | CL ([2]; rat plasma, PO 5 mg/Kg): 150 mL/min/kg | Vz ([2]; rat plasma, PO 5 mg/Kg): 58.1 L/kg | F ([2]; rat, IV 1 mg/Kg): 100% | F ([2]; rat, PO 5 mg/Kg, from AUC(0-∞)): 70.1% | oral bioavailability and brain penetration (qualitative) ([2]; rat, oral administration): good oral bioavailability and brain penetration | IC50 ([3]; read-out: Cell Proliferation Inhibition IC50 (nM) NCI-H1975): 100 to 1000 nM | IC50 ([3]; read-out: IC50 NCI-H1975 anti-proliferation): < 1000 nM | IC50 ([4]; read-out: Cell Proliferation Inhibition IC50 (nM) NCI-N87): < 100 nM | IC50 ([4]; read-out: IC50 NCI-N87 anti-proliferation): < 100 nM
